Patent EP1733731A1, “New uses of Glycerol derivatives in particular in cosmetics” (AGRO INDUSTRIE RECHERCHES ET DEVELOPPEMENTS (A.R.D.), priority 2005, dated 2006)

Assays:
TIMP-1 = TIMP-1 secretion by dermal fibroblasts (reverse zymography); type: cell-based
Description: Les effets de ces composés et fractions ont été étudiés sur la sécrétion de TIMP-1 par des fibroblastes dermiques en culture. L'analyse de la quantité de TIMP-1 produite est effectuée par une technique de zymographie inverse (Biotechniques. 2005 Jan;38(1):73-83. Zymographic techniques for the analysis of matrix metalloproteinases and their inhibitors. Snoek-van Beurden PA, Von den Hoff JW). Les résultats présentés sont exprimés en pourcentage par rapport au témoin sans effecteur.

proMMP-1 = assay: activation of proMMP-1 by plasmin in cultured dermal fibroblasts (western blot); type: cell-based; details: 25 µg/mL; 2,5 µg/mL plasmin; Figure 1C-4
Method: (§1) • La Figure 1 représente la modulation de l'activation des proMMP-3 (Figures 1A et 1B) et proMMP-1 (Figure 1C) in vitro comme en culture par des extraits glycolipidiques du gluten de blé. • Figure 1A : 100 nM de proMMP-3 (Figure 1A-1) sont incubés avec 65 nM de plasmine en absence (Figure 1A-2) ou en présence de glycolipides (Figure 1A-3 et 4), à la concentration de 50µg/mL pour M1-Sucres (Figure 1A-3) et 25 µg/mL pour ED 23-11 (Figure 1A-4). • Figure 1B : des fibroblastes dermiques sont ensemencés en plaque 24 puits à raison de […] cellules par puits jusque confluence. Après une mise au repos de 18 heures, les cellules sont incubées en présence (Figure 1B-2, 3 et 4) ou non (Figure 1B-1) de 2,5 µg/mL de plasmine ainsi que des glycolipides M1(-Sucres) (Figure 1B-3) et ED 23-11 (Figure 1B-4) aux mêmes concentrations que précédemment. • Figure 1C : des fibroblastes dermiques sont ensemencés en plaque 24 puits à raison de […] cellules par puits jusque confluence. Après une mise au repos de 18 heures, les cellules sont incubées en présence (Figure 1C-2, 3 et 4) ou non (Figure 1C-1) de 2,5 µg/mL de plasmine ainsi que des glycolipides M1(-Sucres) (Figure 1C-3) et ED 23-11 (Figure 1C-4) aux mêmes concentrations que précédemment. Dans l'ensemble des figures 1A, 1B et 1C, la réaction est arrêtée aux temps indiqués par addition de 0,3 mg/ml d'aprotinine. […]

plasmine humaine = target: T1, plasmine humaine (Homo sapiens, UniProt P00747); assay: activation of proMMP-3 by plasmin in vitro (western blot); type: biochemical; details: 25 µg/mL; 65 nM plasmin, 100 nM proMMP-3; Figure 1A-4
T1 construct: connus pour interagir avec la plasmine via son domaine kringle V; testé in vitro sur l'activité amidolytique de la plasmine à l'aide d'un substrat synthétique (S-2251, Chromogénix)
T1 sequence (P00747 97-580 limits assumed): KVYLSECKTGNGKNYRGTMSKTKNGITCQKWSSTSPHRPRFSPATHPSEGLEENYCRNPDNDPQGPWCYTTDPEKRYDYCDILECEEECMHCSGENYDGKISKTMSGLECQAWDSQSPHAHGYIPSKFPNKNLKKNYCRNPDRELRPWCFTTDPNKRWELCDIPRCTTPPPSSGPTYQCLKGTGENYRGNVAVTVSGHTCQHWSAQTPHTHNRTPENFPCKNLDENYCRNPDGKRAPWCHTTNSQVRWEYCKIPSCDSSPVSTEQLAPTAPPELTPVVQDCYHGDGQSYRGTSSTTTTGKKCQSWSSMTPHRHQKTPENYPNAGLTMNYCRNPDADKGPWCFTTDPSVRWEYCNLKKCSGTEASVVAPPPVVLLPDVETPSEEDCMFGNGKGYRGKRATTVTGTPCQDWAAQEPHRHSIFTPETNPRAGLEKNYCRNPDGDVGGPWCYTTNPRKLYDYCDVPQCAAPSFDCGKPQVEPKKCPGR
T1 sequence (P00747 581-810 limits assumed): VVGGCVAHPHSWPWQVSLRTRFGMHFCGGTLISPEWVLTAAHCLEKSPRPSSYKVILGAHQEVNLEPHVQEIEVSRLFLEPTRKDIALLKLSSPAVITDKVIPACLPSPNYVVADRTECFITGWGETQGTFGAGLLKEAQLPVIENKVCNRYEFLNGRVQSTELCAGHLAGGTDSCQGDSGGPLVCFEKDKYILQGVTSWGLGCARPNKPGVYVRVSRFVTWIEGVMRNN
Method: as §1

CCCCC/C=C\C/C=C\CCCCCCCCOC[C@H](CO[C@@H]1O[C@H](COC(=O)CCCCCCCCCCCCCCC)[C@H](O)[C@H](O)[C@H]1O)OCCCCCCCC/C=C\C/C=C\CCCCC [ED23-11, 1,2-di-O-linoléyl-3-O-[6'-O-palmitoyl-β-D-galactopyranosyl]-sn-glycérol]
sécrétion de TIMP-1, pourcentage par rapport au témoin sans effecteur (TIMP-1; 5 ng/mL): 102% | sécrétion de TIMP-1, pourcentage par rapport au témoin sans effecteur (TIMP-1; 25 ng/mL): 104% | sécrétion de TIMP-1, pourcentage par rapport au témoin sans effecteur (TIMP-1; 50 ng/mL): 98% | sécrétion de TIMP-1, pourcentage par rapport au témoin sans effecteur (TIMP-1; 100 ng/mL): 101% | sécrétion de TIMP-1, pourcentage par rapport au témoin sans effecteur (TIMP-1; 200 ng/mL): 106% | surexpression du TIMP-1 (TIMP-1; over the tested concentration range, result in words): pas | activation de la proMMP-1 (proMMP-1): inhibition significative | activation de la proMMP-3 par la plasmine (plasmine humaine): inhibition
